# Assay results as given in patent US20210275498A1, “IMIDAZOLYL ETHANAMIDE PENTANDIOIC ACID FOR USE IN THERAPY OF SYMPTOMS RELATED TO EXPOSURE TO LETHAL RADIATION” (priority 2018, published 2021).
# Key:
# Type in all cases: in vivo
# [1] = tested on: C57BL/6 mice; assay: Mortality / survival to Day 30 after whole-body irradiation (5.8 Gy or 6.0 Gy)
# Text: Based on a previously reported study (Williams et al. 2010, Plett et al. 2012, Chua et al. 2014, Singh et al., 2015), the mouse model was developed to investigate LD25 and LD50. The whole-body irradiation and selected dose serve as a translational in vivo model mimicking possible radiation exposure to humans following a nuclear incident.
# Animals (C57BL/6 mice) were supplied by Jackson Laboratories (Bar Harbor, Me. facility). Animals were maintained at SNBL USA (Everett, Wash. facility) as stock prior to study assignment and were screened for health by veterinary staff prior to use on study. 205 animals were assigned to treatment groups.
# Oral application of Myelo001 would be conducive for nuclear or other radiation incidents and was chosen for this study. […] The human equivalent dose is estimated to be 4 mg/kg based on allometric calculations.
# (§1) Based on the ARS Scoring SNBL SOP, if the sum of the three parameter scores totaled 8 or higher, the animal was considered moribund and was euthanized with an unscheduled necropsy performed according to the moribund animal SOP.
# Cageside mortality checks were conducted per SOP, twice daily after Day −3. Morning and afternoon checks began 2 to 3 hours after the completion of the respective ARS scorings. Individual assessments were only documented for apparently moribund animals by re-scoring, or for found dead animals by removal.
# Survival data were summarized descriptively and graphically using the Kaplan-Meier method. Further, death rates were tabulated by treatment. The equality of two or more survivor curves was tested with log rank tests. In addition, Cox-regression models were used to estimate hazard ratios, p-values and 95% confidence intervals (95% CI).
# The focus of the survival analysis is irradiation related death between irradiation on Day 0 and Day 30. Thus, the scheduled necropsies on Day 7 and Day 14 or deaths unrelated to radiation (Animals 2041, 9012 and 9021) were considered as censored events.
# [2] = tested on: C57BL/6 mice; assay: ARS scoring (posture, coat, behavior) after whole-body irradiation; set-up: key to Supporting variable: ARS scores (trend): positive trend (descriptively) +; negative trend (descriptively) −; no difference (descriptively) 0; details: for ARS posture score, most frequent grade (mode): control group 2 mild
# Protocol: Scores on a scale of 1 to 4 (minimal, mild, moderate and severe) for posture, coat, and behavior were recorded twice daily per SNBL SOP, beginning on Day −3, except on the day of scheduled necropsy when scoring occurred only once. Observations were performed by 5 individuals during the course of the study.
# After Day 0, the first ARS scoring began in the morning and the second ARS scoring began 4 to 6 hours following the completion of the morning ARS scoring. On the day of scheduled necropsy, ARS scoring occurred in the morning, prior to necropsy.
# as §1
# [3] = tested on: C57BL/6 mice; assay: Body weight after whole-body irradiation (response profile analysis); details: Day 0, Day −3 to 0 (6x), prophylactic, 5.8 Gy
# Protocol: Body weights were assessed twice during acclimation (including Day −3), once prior to irradiation (Day 0), and every 3 days thereafter. Terminal body weights were also collected, with the exception of Animal 4012.
# The longitudinal data were analyzed taking into account the mean weight over time in each group and the covariance among the repeated measures by response profile analysis (Fitzmaurice et al., Wiley 2004, p 103-140.). The analysis was specified as a regression model with unstructured covariance to account for the correlation among repeated body weights of the same mouse and indicator variables for treatment groups and time, where the vehicle treatment was used as the reference group and Day 0 was taken as a reference for time.
# The response profile analyses provide the following regression coefficients estimated by the restricted maximum likelihood (REML) method: intercept—mean body weight in the reference groups VL (POx1);2 and VH (POx1);8 at Day 0 treatment—difference between the mean body weight in the treatment groups and the vehicle groups at Day 0 time—body weight change from baseline in the reference groups treatment×time—treatment effect at each day estimated by comparison of change from baseline in the treatment groups and control groups For all regression coefficients, p-values and 95%-confidence intervals are provided. This method provides interpretable estimates, is valid if treatment groups differ at baseline, allows for arbitrary patterns in the mean body weight over time (no specific time trend e. g. linear curve assumed) and arbitrary patterns in the covariance. The analysis has certain robustness, as potential risks due to model misspecification are minimal.
# [4] = Group 3 ML (IPx2): 25 mg/kg IP, Day −3 to 0 (6x), prophylactic, 5.8 Gy
# [5] = Group 4 ML (POx2): 25 mg/kg per os, Day −3 to 0 (6x), prophylactic, 5.8 Gy
# [6] = Group 5 ML (POx1): 50 mg/kg per os SID Day −2, −1, 0, prophylactic, 5.8 Gy
# [7] = Group 9 MH (POx1): 50 mg/kg per os SID Day 1, 2, 3, therapeutic, 6.0 Gy
compound,measurement,setting,value
"O=C(O)CCCC(=O)NCCc1c[nH]cn1 [Myelo001, 5-{[2-(1H-imidazol-4-yl)ethyl]amino}-5-oxo-pentanoic acid]",Dead (irradiation related deaths),[1]; [4],3
same,"Irradiation related death rate, Rate (per 100 Days)",[1]; [4],1.30 per 100 Days
same,Survival after 30 days (Kaplan-Meier estimate),[1]; [4],0.54
same,Time at Risk,[1]; [4],231 days
same,"Time to 10% death, Time",[1]; [4],13 days
same,"Hazard ratio (Cox regression, risk of radiation induced death)","[1]; Group 3 ML (IPx2): 25 mg/kg IP, Day −3 to 0 (6x), prophylactic, 5.8 Gy, reference group VL (POx1), 2",2.48
same,"Quantity ratio of survival probability (dose reduction factor, DRF), day 30, relative to control group","[1]; Group 3 ML (IPx2): 25 mg/kg IP, Day −3 to 0 (6x), prophylactic, 5.8 Gy, vs VL (POx1), 2",0.7
same,Dead (irradiation related deaths),[1]; [5],6
same,"Irradiation related death rate, Rate (per 100 Days)",[1]; [5],0.96 per 100 Days
same,Time at Risk,[1]; [5],627 days
same,"Time to 10% death, Time",[1]; [5],15 days
same,"Hazard ratio (Cox regression, risk of radiation induced death)","[1]; Group 4 ML (POx2): 25 mg/kg per os, Day −3 to 0 (6x), prophylactic, 5.8 Gy, reference group VL (POx1), 2",1.49
same,Dead (irradiation related deaths),[1]; [6],3
same,"Irradiation related death rate, Rate (per 100 Days)",[1]; [6],0.44 per 100 Days
same,Time at Risk,[1]; [6],680 days
same,"Time to 10% death, Time",[1]; [6],21 days
same,"Hazard ratio (Cox regression, risk of radiation induced death)","[1]; Group 5 ML (POx1): 50 mg/kg per os SID Day −2, −1, 0, prophylactic, 5.8 Gy, reference group VL (POx1), 2",0.64
same,Dead (irradiation related deaths),[1]; [7],3
same,"Irradiation related death rate, Rate (per 100 Days)",[1]; [7],0.48 per 100 Days
same,Time at Risk,[1]; [7],611 days
same,"Time to 10% death, Time",[1]; [7],23 days
same,survival,"[1]; Group 9 MH (POx1): 50 mg/kg per os SID Day 1, 2, 3, therapeutic, 6.0 Gy (LD50/30), control Group 8 56%",86%
same,"Hazard ratio (Cox regression, risk of radiation induced death)","[1]; Group 9 MH (POx1): 50 mg/kg per os SID Day 1, 2, 3, therapeutic, 6.0 Gy, reference group VH (POx1), 8",0.32
same,frequency of normal posture score in comparison with control group,"[2]; Day 15, Group 3 ML (IPx2): 25 mg/kg IP, Day −3 to 0 (6x), prophylactic, 5.8 Gy",did not result in such changes
same,"ARS posture score, most frequent grade (mode)","[2]; Day 15, Group 4 ML (POx2): 25 mg/kg per os, Day −3 to 0 (6x), prophylactic, 5.8 Gy",normal
same,"ARS posture score, most frequent grade (mode)","[2]; Day 15, Group 5 ML (POx1): 50 mg/kg per os SID Day −2, −1, 0, prophylactic, 5.8 Gy",normal
same,ARS coat grade,"[2]; Day 21, Group 9 MH (POx1): 50 mg/kg per os SID Day 1, 2, 3, therapeutic, 6.0 Gy, control Group 8 mild (20%) and moderate (27%)",mostly normal
same,frequency of normal posture score in comparison to control group 8,"[2]; Day 30, Group 9 MH (POx1): 50 mg/kg per os SID Day 1, 2, 3, therapeutic, 6.0 Gy",trend for the increased frequency of normal posture score
same,Supporting variable: ARS scores (trend),[2]; [4],−
same,Supporting variable: ARS scores (trend),[2]; [6],+
same,Supporting variable: ARS scores (trend),[2]; [7],+
same,Body weight: % Difference from Baseline (g) (difference to vehicle group 2 at Day 0),[3]; Group 3 ML (IPx2): 25 mg/kg IP,-0.8 g
same,Body weight: % Difference from Baseline (g) (difference to vehicle group 2 at Day 0),[3]; Group 4 ML (POx2): 25 mg/kg per os,-0.3 g
